Assay results as given in patent publication US20260199493A1 (priority 2021, published 2026).

How the values were obtained:
HSA mRNA = conditions: HSA-LR mice
Source text: […] The HSA-LR mice were divided into 5 groups. […] […] RT-PCR was used to determine alternative splicing for specific genes (Atp2a1, Clcn1, Nfix, MBNL1). LC-mass was used to determine drug level in Quad, gastro, TA, Triceps, diaphragm, heart, kidney, liver, Brain, plasma. RNA-seq was used to determine the transcription level change between a treated disease model, an untreated disease model and wild-type. Fluorescence imaging was used to determine RNA Foci reduction after treatment with the EEV-oligo compound. […] Q-PCR was used to determine the reduction of mRNA level of actin-HSA after treatment.
(§1) RT-PCR was used to determine alternative splicing for specific genes (Atp2a1, Clcn1, Nfix, MBNL1). LC-mass was used to determine drug level in Quad, gastro, TA, Triceps, diaphragm, heart, kidney, liver, Brain, plasma. RNA-seq was used to determine the transcription level change between a treated disease model, an untreated disease model and wild-type. Fluorescence imaging was used to determine RNA Foci reduction after treatment with the EEV-oligo compound. Myotonia reduction was recorded 7 days after treatment with the EEV-oligo compound. Q-PCR was used to determine the reduction of mRNA level of actin-HSA after treatment.

nuclear foci (CUG foci) = conditions: DM1 patient-derived muscle cells, 30 μM, 4 days of differentiation
Experimental: (§2) Patient myoblasts were treated with 30 micromolar of EEV-oligo throughout 4 days of differentiation. Splicing correction was assessed by one-step RT-PCR. HCR—FISH and sequestered MBNL1 protein detection assays were used to detect RNA foci.
(§3) Patient myoblasts harbor 2600 CTG repeats within the DMPK 3′UTR. […] Splicing correction was assessed by one-step RT-PCR and Labchip analysis. Plotted mean f SD; n=4 HCR—FISH assay for CUG foci detection in place.

[1] = system: DM1 patient-derived muscle cells; conditions: 30 μM, 4 days of differentiation
Experimental: as §2, §3

[2] = system: MBNL1 downstream genes (Atp2a1, Nfix, Clcn1, Mbnl1); conditions: 1 week
Source text: (§4) 9 week old HSA-LR mice and control FVB mice were employed in a 1 week post single dose range study. The HSA-LR mice were divided into 5 groups. […] Tissues were harvested after 7 days. RT-PCR was used to determine alternative splicing for specific genes (Atp2a1, Clcn1, Nfix, MBNL1). LC-mass was used to determine drug level in Quad, gastro, TA, Triceps, diaphragm, heart, kidney, liver, Brain, plasma. RNA-seq was used to determine the transcription level change between a treated disease model, an untreated disease model and wild-type. Fluorescence imaging was used to determine RNA Foci reduction after treatment with the EEV-oligo compound. […] Q-PCR was used to determine the reduction of mRNA level of actin-HSA after treatment.
as §1

[3] = Source text: as §4
CUG foci = conditions: HSA-LR mouse, 1 week
Source text: as §4

IRF-5 gene exon skipping = conditions: RAW 264.7 cells, 5 μM
Experimental: Briefly, 150K cells/well were seeded in a 24 well plate in 0.5 ml DMEM. […] Following the second incubation, the RNA was harvested and RT-PCR was done using primers that detect exon 5 skipping in the IRF-5 gene.

IRF5 protein = conditions: for efficacy relative to EEV-PMO-IRF5-1 / IRF-5 protein expression compared to cells stimulated with R848 / IRF-5 protein reduction: RAW 264.7 cells; for efficacy relative to EEV-PMO-IRF5-1 / relative potency compared to EEV-PMO-IRF5-1 (IRF5 protein expression): R848 stimulation; for efficacy relative to EEV-PMO-IRF5-1: on average; for IRF-5 protein expression compared to cells stimulated with R848: all tested concentrations; for IRF-5 protein reduction: concentrations as low as 2 μM, vs cells stimulated with R848; for relative potency compared to EEV-PMO-IRF5-1 (IRF5 protein expression): mouse macrophage cells, Western Blot
[4] = system: exon 44 of human dystrophin mRNA; assay: Exon 44 skipping by RT-PCR in hDMD mice; assay type: in vivo
Experimental: The hemizygous mice were further genotyped at Transnetyx. All groups were dosed 5 mL/kg per animal by intravenous (iv) injection and sacrificed after 5 days post injection. All animals were euthanized by CO2 asphyxiation followed by terminal blood collection via cardiac puncture. Maximum obtainable volume of whole blood was collected into lithium heparin tubes and processed to plasma. A portion of plasma was analyzed for clinical chemistries by the Testing Facility (IDEXX) and the rest stored frozen at nominally −70° C. […] Animals were age matched and assigned into eight (8) treatment groups according to Table 15. […] All animals survived until their scheduled euthanasia time. Tissues were collected per protocol. The amount of AC and a cCPP-AC in various tissue samples was quantified by LC-MS. Exon skipping in different tissues were analyzed by RT-PCR and the quantification of exon 44 correction.
(§5) Exon Skipping Analysis by RT-PCR: hDMD mice and NHP express full-length human dystrophin mRNA. The delivery of AC can alter the splicing and result in a shortened dystrophin mRNA after exon 44 skipping. The tissues were homogenized using 1 mL of RLT lysis buffer (Qiagen, Cat #79216). The detection of splicing correction process was measured by RT-PCR where extracted RNAs from tissues were first reverse-transcribed into cDNA and further analyzed by one step RT-PCR using the following primer set: forward primer 5′-[…]-3′ (SEQ ID NO: 262) and reverse primer 5′-[…]-3′ (SEQ ID NO: 263). […] Quantification of the relative intensity of the bands corresponding to skipped and unskipped transcripts were performed to assess AC-induced exon-44-skipping efficacy. The degree (percentage) of splicing correction detected by RT-PCR was calculated using the following equation: % correction=(intensity of 493 bp fragment band)/(intensity of 493 bp fragment band+intensity of 641 bp fragment band).

[5] = system: exon 44 of dystrophin mRNA; assay: Exon 44 skipping by RT-PCR in NHP; assay type: in vivo, cynomolgus monkeys
Experimental: Each testing article was formulated in saline at 4 mg/mL. Bloods and urine were taken at times indicated in Table 18 for further PK analysis. Biopsy at 2 days post injection was performed on biceps. Animals were sacrificed at day 7 post injection and skeletal muscles (quadriceps, diaphragm, biceps, deltoid, tibialis anterior (TiA), smooth muscles (esophagus, aorta, colon) and cardiac muscles (ventricle, atrium) were taken, pulverized, and stored at −80° C. for evaluation of exon skipping and biodistribution in tissues.
as §5
Approximately 20 hours post dose the animal was (bright, alert, and responsive such that the animal was phenotypically “normal”) (BAR) and had zero biscuits left in the cage and was observed eating produce.

[6] = system: human dystrophin (DMD) exon 44; assay: Exon 44 skipping in DMD patient-derived muscle cells; assay type: cell-based; conditions: dose-dependent, maximum observed
Experimental: After 24 hours, the compound-containing growth medium was replaced with DMEM/2% horse serum and incubated for 5 days to promote myoblast fusion and differentiation into myotubes. Cells were washed and harvested for RNA extraction to assess exon 44 skipping, or in RIPA buffer containing protease inhibitors for protein extraction and Simple Western analysis of dystrophin protein restoration. Dystrophin levels were normalized to HSP90 and expressed relative to untreated healthy samples. Data are expressed as mean±SD, n=3-4. Untreated DMDΔ45 patient derived cells express ~10% spontaneous DMD exon 44 skipping and ~4% dystrophin protein at baseline.

GYS1 = conditions: GAA knockout mice, single IV dose, one-week post-injection
[7] = in vivo
Source text: as §4, §1

[8] = system: Human Primary Renal Proximal Tubular Epithelial Cells (RPTECs); conditions: 24 hours
[9] = HSA-LR mice, 15, 30, 60, 90 mpk IV

Substance: Ac-PKKKRKV-AEEA-K(cyclo[FGFGRGRQ])-PEG12-OH [EEV-PMO-DM1-3]
- HSA mRNA knockdown (HSA mRNA; 80 mpk IV, 1-week and 4-week post-injection): HSA mRNA knockdown trend
- HSA mRNA knockdown in skeletal muscles (HSA mRNA; quadriceps, gastrocnemius, triceps, tibialis anterior, 1 week): 50-70%
- nuclear foci (nuclear foci (CUG foci)): reduction in nuclear foci
- biomarker splicing correction [1]: significant biomarker splicing correction
- correction of MBNL1 downstream genes, gastrocnemius [2, 9]: dose dependent correction
- correction of MBNL1 downstream genes, quadriceps [2, 9]: dose dependent correction
- correction of MBNL1 downstream genes, tibialis anterior [2, 9]: dose dependent correction
- correction of MBNL1 downstream genes, triceps [2, 9]: dose dependent correction
- mis-splicing in gastrocnemius, triceps, tibialis anterior and quadricep ([2]; HSA-LR mice, 60 mpk oligo, 80 mpk whole drug): fully correct mis-splicing
- myotonia ([3]; HSA-LR mice, 15, 30, 60 and 90 mpk, 7 days): dose dependent myotonia reduction
- hindlimb myotonia ([3]; HSA-LR mice, single dose 90 mg/kg, 1 week): did not exhibit obvious signs of hindlimb myotonia after induction
- CUG foci in TA muscle (CUG foci): reduces CUG foci

Substance: Ac-PKKKRKV-AEEA-K(cyclo[FGFGRRRQ])-PEG12-OH [EEV-PMO-IRF5-3]
- exon skipping compared to EEV-PMO-IRF5-1 (IRF-5 gene exon skipping): higher exon skipping
- efficacy relative to EEV-PMO-IRF5-1 (IRF5 protein): 5 fold
- IRF-5 protein expression compared to cells stimulated with R848 (IRF5 protein): significant reduction in IRF-5 protein expression
- IRF-5 protein reduction (IRF5 protein): about 80%
- relative potency compared to EEV-PMO-IRF5-1 (IRF5 protein expression) (IRF5 protein): significant improvement in relative potency

Substance: Ac-PKKKRKV-AEEA-K(cyclo[FGFRRRRQ])-PEG12-OH [EEV-PMO-IRF5-4]
- exon skipping compared to EEV-PMO-IRF5-1 (IRF-5 gene exon skipping): higher exon skipping
- efficacy relative to EEV-PMO-IRF5-1 (IRF5 protein): 5 fold
- IRF-5 protein expression compared to cells stimulated with R848 (IRF5 protein): significant reduction in IRF-5 protein expression
- IRF-5 protein reduction (IRF5 protein): about 80%
- relative potency compared to EEV-PMO-IRF5-1 (IRF5 protein expression) (IRF5 protein): significant improvement in relative potency

Substance: Ac-PKKKRKV-AEEA-K(cyclo[FfΦGrGrQ])-PEG12-OH [EEV-PMO-IRF5-2]
- exon skipping compared to EEV-PMO-IRF5-1 (IRF-5 gene exon skipping): higher exon skipping
- efficacy relative to EEV-PMO-IRF5-1 (IRF5 protein): 5 fold
- IRF-5 protein expression compared to cells stimulated with R848 (IRF5 protein): significant reduction in IRF-5 protein expression
- IRF-5 protein reduction (IRF5 protein): about 80%
- relative potency compared to EEV-PMO-IRF5-1 (IRF5 protein expression) (IRF5 protein): significant improvement in relative potency

Substance: Ac-PKKKRKV-AEEA-Lys-(cyclo[FGFGRGRQ])-PEG12-OH [EEV-PMO-DMD44-1]
- exon skipping ([4]; hDMD mice, 10 mpk IV, 5 days, Diaphragm): 6%
- exon skipping ([4]; hDMD mice, 10 mpk IV, 5 days, TiA): 12%
- exon skipping ([4]; hDMD mice, 10 mpk IV, 5 days, Triceps): 6%
- exon skipping ([4]; hDMD mice, 10 mpk IV, 5 days, heart): 0%
- exon skipping ([4]; hDMD mice, 20 mpk IV, 5 days, Diaphragm): 33%
- exon skipping ([4]; hDMD mice, 20 mpk IV, 5 days, TiA): 36%
- exon skipping ([4]; hDMD mice, 20 mpk IV, 5 days, Triceps): 22
- exon skipping ([4]; hDMD mice, 20 mpk IV, 5 days, heart): 0%
- exon skipping ([4]; hDMD mice, 40 mpk IV, 5 days, Diaphragm): 82%
- exon skipping ([4]; hDMD mice, 40 mpk IV, 5 days, TiA): 99%
- exon skipping ([4]; hDMD mice, 40 mpk IV, 5 days, Triceps): 94%
- exon skipping ([4]; hDMD mice, 40 mpk IV, 5 days, heart): 20%
- exon skipping ([4]; hDMD mice, 80 mpk IV, 5 days, Diaphragm): 98%
- exon skipping ([4]; hDMD mice, 80 mpk IV, 5 days, TiA): 99%
- exon skipping ([4]; hDMD mice, 80 mpk IV, 5 days, Triceps): 97%
- exon skipping ([4]; hDMD mice, 80 mpk IV, 5 days, heart): 79%
- minimum efficacious dose in the heart ([4]; hDMD mice, IV, 5 days): 40 mpk
- exon skipping ([4]; mouse, in vivo): up to 100%
- exon 44 skipping across different muscle groups ([5]; 30 mg/kg, 1 hour IV infusion, 7 days): robust exon 44 skipping
- exon skipping in all skeletal muscles ([5]; 40 mpk IV, 7-d post injection): more than 78%
- exon skipping, atrium ([5]; 40 mpk IV, 7-d post injection): 23.4%
- exon skipping, diaphragm ([5]; 40 mpk IV, 7-d post injection): 98.4%
- exon skipping, esophagus ([5]; 40 mpk IV, 7-d post injection): 57.1%
- exon skipping, ventricle ([5]; 40 mpk IV, 7-d post injection): 31.9%
- exon 44 skipping [6]: up to 100%

Substance: Ac-PKKKRKV-PEG2-K(cyclo[Ff-Φ-Cit-r-Cit-rQ1)-PEG12-K(N3)-NH2 [EEV-PMO-GYS1-1]
- GYS1 expression in the diaphragm and cardiac muscle (GYS1): significant knockdown

Substance: Ac-PKKKRKV-PEG2-K(cyclo[Ff-Φ-GrGrQ])-PEG2-K(N3)-NH2 [EEV-PMO-GYS1-2]
- GYS1 expression in the diaphragm and cardiac muscle (GYS1): significant knockdown

Substance: CAGCAGCAGCAGCAGCAGCAG [PMO-DM1]
- metabolite of EEV-PMO-DM1-3 [7]: major metabolite detected in vivo
- toxicity (viability): no toxicity at highest concentration tested [8]: > 817 µM
